These results are taken from ChEMBL document CHEMBL1134628, “Are free energy calculations useful in practice? A comparison with rapid scoring functions for the p38 MAP kinase protein system” (J Med Chem, 2001).

The target in this test is MAP kinase p38 (Homo sapiens, UniProt O15264+Q15759+Q16539+P53778). Kind of test: Binding affinity against p38 MAP kinase system. In kind it is protein assay.

As usually defined, the pIC50 is −log10 of the IC50, conventionally taken in molar units. Read a high pIC50 as a low IC50. In turn, `O=c1ncn2nc(Sc3ccc(F)c(Cl)c3)ccc2c1-c1c(Cl)cccc1Cl` came in with a pIC50 of 6.301.

Take `Cc1ccc(Sc2ccc3c(-c4c(Cl)cccc4Cl)c(=O)ncn3n2)cc1`: the pIC50 is on record as 5.854.

In the case of `O=c1ncn2nc(Sc3cccc(Cl)c3)ccc2c1-c1c(Cl)cccc1Cl`, the negative-log IC50 (pIC50) is on record as 6.553.

As to `O=c1ncn2nc(Sc3ccc(F)cc3Cl)ccc2c1-c1c(Cl)cccc1Cl`, the pIC50 is recorded as 7.444.

`Cc1cc(Cl)ccc1Sc1ccc2c(-c3c(Cl)cccc3Cl)c(=O)ncn2n1` yielded a pIC50 of 6.745.

With `O=c1ncn2nc(Sc3ccc(Cl)c(Cl)c3)ccc2c1-c1c(Cl)cccc1Cl`, the pIC50 is recorded as 6.097.

As to `O=c1ncn2nc(Sc3cccc(F)c3)ccc2c1-c1c(Cl)cccc1Cl`, the pIC50 is on record as 6.347.

The molecule `Cc1ccc(Sc2ccc3c(-c4c(Cl)cccc4Cl)c(=O)ncn3n2)cc1C` had a pIC50 of 5.721.

`Cc1ccc(Sc2ccc3c(-c4c(Cl)cccc4Cl)c(=O)ncn3n2)c(C)c1` gave a pIC50 of 6.577.

`Nc1cc(F)ccc1Sc1ccc2c(-c3c(Cl)cccc3Cl)c(=O)ncn2n1` gave a pIC50 of 6.658. This pIC50 and that of the molecule before are within 0.2 log units of each other.

`O=c1ncn2nc(Sc3ccccc3)ccc2c1-c1c(Cl)cccc1Cl` returned a pIC50 of 6.602.

With `O=c1ncn2nc(Sc3ccccc3O)ccc2c1-c1c(Cl)cccc1Cl`, the negative logarithm of the IC50 (pIC50) was 6.444.

`Cc1cccc(Sc2ccc3c(-c4c(Cl)cccc4Cl)c(=O)ncn3n2)c1` registered a pIC50 of 5.854.

`Cc1ccccc1Sc1ccc2c(-c3c(Cl)cccc3Cl)c(=O)ncn2n1`: the pIC50 came to 6.699.

Turning to `O=c1ncn2nc(Sc3ccccc3Br)ccc2c1-c1c(Cl)cccc1Cl`, the negative logarithm of the IC50 (pIC50) was found to be 6.602.

As to `O=c1ncn2nc(Sc3ccc(F)cc3)ccc2c1-c1c(Cl)cccc1Cl`, the pIC50 was 7.
